Laboratory results taken from patent EP1203770A1 (priority 1992, dated 1994).

Biological target: T1, HIV-1 protease (Human immunodeficiency virus type 1 group M subtype B, UniProt P04585)
T1 construct: The protease (or proteinase), consisting of only 99 amino acids, is among the smallest enzymes known
Assay: In vitro HIV protease inhibitory assay (HIV Protease FITC Assay)
Format: biochemical
Settings: for inhibition at 0.41 µM: HIV-1 Dose 0.410 uM; for inhibition at 1.23 µM: HIV-1 Dose 1.230 uM; for inhibition at 3.7 µM: HIV-1 Dose 3.700 uM; for inhibition at 11 µM: HIV-1 Dose 11.000 uM; for inhibition at 33 µM: HIV-1 Dose 33.000 uM; for inhibition at 100 µM: HIV-1 Dose 100.000 uM; for inhibition at 10 µM: HIV-1 Dose 10.000 uM; for Ki: read-out: HIV-1 FITC Ki; for inhibition at 1 µM: HIV-1 Dose 1.000 uM
Procedure: The HIV protease screening assay is based on a fluorescently labeled substrate which can be resolved from nonlabeled cleavage product using avidin-polystyrene particles, 0.7-0.9 µm. The substrate is biotinylated at the amino terminal arginine and fluorescently labeled with fluorescein isothiocynate (FITC) at the carboxyl terminal lysine. […] Substrate (20 µl of 0.2 µM), sample (10 µl of desired concentraion), and enzyme (10 µl of 0.1 µM) are added to a 96 well pandex plate. The assay is run in 0.1 M sodium acetate buffer at pH 5.5 in the presence of 1.0 M sodium chloride and 0.05% NP-40 and incubated in the dark for one hour at room temperature. Avidin coated polystyrene beads {40 µl of 0.1% (w/v)} are added and the incubation is continued in the dark for an additional half hour. The labeled cleavage product is separated from the unreacted substrate via filtration and is read on the Idexx Screen Machine. The data are analyzed by appropriate computer algorithms to ascertain percent inhibition values.

[1] = read-out: HIV-1 Protease % Inhib

Compound | inhibition at 0.41 µM [1] | inhibition at 1.23 µM [1] | inhibition at 3.7 µM [1] | inhibition at 11 µM [1] | inhibition at 33 µM [1] | inhibition at 100 µM [1] | inhibition at 0.123 µM (HIV-1 Dose 0.123 uM, read-out: HIV-1 Protease % Inhib) | inhibition at 0.37 µM (HIV-1 Dose 0.370 uM, read-out: HIV-1 Protease % Inhib) | inhibition at 1.1 µM (HIV-1 Dose 1.100 uM, read-out: HIV-1 Protease % Inhib) | inhibition at 3.3 µM (HIV-1 Dose 3.300 uM, read-out: HIV-1 Protease % Inhib) | inhibition at 10 µM [1] | inhibition at 30 µM (HIV-1 Dose 30.000 uM, read-out: HIV-1 Protease % Inhib) | Ki | inhibition at 1 µM [1]
CCC(Cc1ccccc1)c1cc(O)c(C(c2cccc(NC(=O)OCc3ccccc3)c2)C2CC2)c(=O)o1 (stereo not drawn) [Example 36, 3-(α-Cyclopropyl-meta-(benzyloxycarbonylamino)benzyl)-6-(α-ethyl-phenethyl)-4-hydroxy-2H-pyran-2-one] | < 10% | 13.7% | 43.4% | 73.7% | 77.2% | 87.5% |  |  |  |  |  |  |  | 
O=C(CCn1ccc2ccccc21)Nc1cccc(C(c2c(O)cc(C(CC3CC3)CC3CC3)oc2=O)C2CC2)c1 (stereo not shown) [Example 39, N-(3-(Cyclopropyl-[6-(2-cyclopropyl-1-cyclopropylmethyl-ethyl)-4-hydroxy-2-oxo-2H-pyran-3-yl]-methyl)-phenyl)-3-indol-1-yl-propionamide] |  |  |  |  |  |  | < 10% | 24.8% | 60.6% | 86.3% | 91.8% | 94.5% | 96 nM | 
CCCC(CCC)c1cc(O)c(C(CC)c2ccccc2)c(=O)o1 (stereo not shown) [Example 40, 4-Hydroxy-3-(1-phenyl-propyl)-6-(1-propyl-butyl)-pyran-2-one] |  |  |  |  |  | 80% |  |  |  |  | 79.5% |  |  | 37.2%
C=CC(c1ccccc1)c1c(O)cc(C(CCC)CCC)oc1=O (stereo not shown) [Example 41, 4-Hydroxy-3-(1-phenyl-allyl)-6-(1-propyl-butyl)-pyran-2-one] |  |  |  |  |  | 80.9% |  |  |  |  | 65.9% |  |  | 21.2%
CC(C)(C)OC(=O)CCc1cc(O)c(C(c2ccccc2)C2CC2)c(=O)o1 (stereo not shown) [Example 42, 3-(5-(Cyclopropyl-phenyl-methyl)-4-hydroxy-6-oxo-6H-pyran-2-yl)-propionic acid tert-butyl ester] |  |  |  |  |  | 105% |  |  |  |  | 74.7% |  | 520 nM | 19.7%
Cc1noc(C)c1CCc1cc(O)c(C(c2ccccc2)C2CC2)c(=O)o1 (stereo not shown) [Example 43, 3-(Cyclopropyl-phenyl-methyl)-6-(2-(3,5-dimethyl-isoxazol-4-yl)-ethyl)-4-hydroxy-pyran-2-one] |  |  |  |  |  | 97.3% |  |  |  |  | 89.4% |  | 460 nM | 44.6%
CC(C)(C)c1nc(CCc2cc(O)c(C(c3ccccc3)C3CC3)c(=O)o2)no1 (stereo not shown) [Example 44, 6-(2-(5-Tert-butyl-(1,2,4)oxadiazol-3-yl)-ethyl)-3-(cyclopropyl-phenyl-methyl)-4-hydroxy-pyran-2-one] | < 10% | 24.9% | 57.3% | 84.3% | 106% | 114% |  |  |  |  |  |  | 1840 nM | 
CCC(CC1CCOC1)c1cc(O)c(C(c2ccccc2)C2CC2)c(=O)o1 (stereo not shown) [Example 45, 3-(Cyclopropyl-phenyl-methyl)-4-hydroxy-6-(1-(tetrahydro-furan-3-ylmethyl)-propyl)-pyran-2-one] | 79.3% | 94.4% | 101% | 103% | 114% | 116% |  |  |  |  |  |  | 53 nM | 
O=c1oc(C(Cc2ccccc2)Cc2ccccn2)cc(O)c1C(c1ccccc1)C1CC1 (stereo not shown) [Example 46, 3-(Cyclopropyl-phenyl-methyl)-4-hydroxy-6-(2-phenyl-1-pyridin-2-ylmethyl-ethyl)-pyran-2-one] | 29.2% | 65% | 91.6% | 94.2% | 103% | 115% |  |  |  |  |  |  | 313 nM | 
O=c1oc(CCC2OCCO2)cc(O)c1C(c1ccccc1)C1CC1 (stereo not shown) [Example 47, 3-(Cyclopropyl-phenyl-methyl)-6-(2-(1,3)dioxolan-2-yl-ethyl)-4-hydroxy-pyran-2-one] | < 10% | 19.4% | 50% | 73.2% | 91.3% | 107% |  |  |  |  |  |  | 505 nM | 
O=c1oc(CCCCN2CCOCC2)cc(O)c1C(c1ccccc1)C1CC1 (stereo not shown) [Example 48, 3-(Cyclopropyl-phenyl-methyl)-4-hydroxy-6-(4-morpholin-4-yl-butyl)-pyran-2-one] | < 10% | < 10% | < 10% | < 10% | 31.3% | 61.6% |  |  |  |  |  |  |  | 
O=c1oc(CCc2ccccn2)cc(O)c1C(c1ccccc1)C1CC1 (stereo not shown) [Example 49, 3-(Cyclopropyl-phenyl-methyl)-4-hydroxy-6-(2-pyridin-2-yl-ethyl)-pyran-2-one] | < 10% | 24.6% | 52.3% | 80% | 93.7% | 98.3% |  |  |  |  |  |  | 425 nM | 
Cc1nc(CCc2cc(O)c(C(c3ccccc3)C3CC3)c(=O)o2)cs1 (stereo not shown) [Example 50, 3-(Cyclopropyl-phenyl-methyl)-4-hydroxy-6-(2-(2-methyl-thiazol-4-yl)-ethyl)-pyran-2-one] | < 10% | 22.1% | 55.5% | 80.5% | 96% | 106% |  |  |  |  |  |  | 353 nM | 
O=c1oc(CCc2ccc3ccccc3n2)cc(O)c1C(c1ccccc1)C1CC1 (stereo not shown) [Example 51, 3-(Cyclopropyl-phenyl-methyl)-4-hydroxy-6-(2-quinolin-2-yl-ethyl)-pyran-2-one] | < 10% | < 10% | 23.4% | 50.7% | 70% | 83.7% |  |  |  |  |  |  |  | 
CCC(Cc1ccc(Cl)s1)c1cc(O)c(C(c2ccccc2)C2CC2)c(=O)o1 (stereo not shown) [Example 52, 6-(1-(5-Chloro-thiophen-2-ylmethyl)-propyl)-3-(cyclopropyl-phenyl-methyl)-4-hydroxy-pyran-2-one] | 66.6% | 86.2% | 106% | 112% | 116% | 113% |  |  |  |  |  |  | 43 nM | 
O=c1oc(CCCCl)cc(O)c1C(c1ccccc1)C1CC1 (stereo not shown) [Example 53, 6-(3-Chloro-propyl)3-(cyclopropyl-phenyl-methyl)-4-hydroxy-pyran-2-one] | 19.4% | 47.5% | 86% | 102% | 117% | 120% |  |  |  |  |  |  | 220 nM | 
CCC(Cc1c(C)noc1C)c1cc(O)c(C(c2ccccc2)C2CC2)c(=O)o1 (stereo not shown) [Example 54, 3-(Cyclopropyl-phenyl-methyl)-6(1-(3,5-dimethyl-isoxazol-4-ylmethyl)-propyl)-4-hydroxy-pyran-2-one] | 85% | 95.8% | 109% | 113% | 117% | 100% |  |  |  |  |  |  | 72 nM | 
CCC(Cc1csc(-c2ccc(Cl)cc2)n1)c1cc(O)c(C(c2ccccc2)C2CC2)c(=O)o1 (stereo not shown) [Example 55, 6-(1-(2-(4-Chloro-phenyl)-thiazol-4-ylmethyl)-propyl)-3-(cyclopropyl-phenyl-methyl)-4-hydroxy-pyran-2-one] | < 10% | 24.1% | 59.6% | 92.1% | 89.6% | 102% |  |  |  |  |  |  | 578 nM | 
